Laboratory results as given in US20220275376A1, “TARGETING SLC38A2 IN PANCREATIC CANCER” (New York University, priority 2019, published 2022).

Experiments:
HY19636 cells = assay: Intracellular amino acid levels in SLC38A2-deficient HY19636 cells after alanine supplementation; format: cell-based, mouse; settings: SLC38A2-deficient (sgSlc38a2 #1) HY19636 cells, 1 mM, 24 hours
Description: (A) Serine, glycine, proline, and glutamate extracellular fluxes in SLC38A2-deficient (sgSLC38A2 #1, #3) and control (sgTom) HY19636, MiaPaCa2, and PANC1 cells cultured in DMEM. Extracellular accumulation (+, secretion) or depletion (−, uptake) was measured in conditioned media over 24 hours and normalized to the viable cell density over the time course. Error bars depict s.d. of three independent experiments. (B) Essential amino acid (leucine, isoleucine, valine, threonine) uptake fluxes in SLC38A2-deficient (sgSLC38A2 #1, #3) and control (sgTom) HY19636, MiaPaCa2, and PANC1 cells cultured in DMEM for 24 hours. Error bars depict s.d. of three independent experiments. […] Data presented as a percent change for each amino acid relative to that measured in DMEM conditions. […]
For ^13C- and ^15N-labeled alanine tracing experiments, cells were plated into 6-well plates at 250,000 cells/well and allowed to attach overnight. […] Fatty acid labeling from ^13C3-alanine was measured by transferring 400 μL of the inorganic layer to a glass vial and evaporating under nitrogen flow in a needle evaporator prior to transesterification and GC-MS analysis. To quantify contribution to proteogenic amino acid pools, the insoluble interphase layer containing proteins was washed three times with HPLC-grade acetone and allowed to dry overnight with gentle nitrogen flow in a needle evaporator. […]

8988T cells = assay: Alanine uptake from culture media conditioned by 8988T cells; format: cell-based; settings: 10 μM, vs vehicle (DMSO), up to 96 hours
Description: (A) Alanine levels in culture media conditioned by 8988T cells treated with vehicle (DMSO) or fluvoxamine (FVX, 10 μM) over time. (B) Alanine uptake flux by 8988T cells treated with vehicle (DMSO) or fluvoxamine (FVX, 10 μM) for 96 hours. Data were normalized to cell growth over the treatment period. (C) Glutamine levels in culture media conditioned by 8988T cells treated with vehicle (DMSO) or fluvoxamine (FVX, 10 μM) over time. (D) Absolute values for amino acid uptake or secretion flux by 8988T cells treated with vehicle (DMSO) or fluvoxamine (FVX, 10 μM) for 96 hours. Data were normalized to cell growth over the treatment period.
Fluvoxamine (FVX), fluoxetine (FLX), paroxetine (PXT), sertindole (SND), and blonanserin (BNS) were acquired from Cayman Chemicals. Desipramine (DPM), α-(Methylamino) isobutyric acid (MeAIB), and L-alanine were acquired from Sigma. Stocks were prepared at 10 mM or 7.5 mM (BNS) in DMSO. Cells were treated with vehicle (DMSO) or varying concentrations of drug for indicated time. Conditioned media was collected and centrifuged at 1,000×g to remove cell debris followed by extraction of metabolites. For metabolite extraction, cells were first washed with ice cold 0.9% NaCl to remove media contamination followed by addition of 500 μL methanol (−20° C.) and 200 μL HPLC grade water (4° C.). […]

SLC38A2 = molecular target: T1, SLC38A2 (Homo sapiens, UniProt Q96QD8); assay: SLC38A2 activity measured by MeAIB uptake in HY15549 dox-inducible SNAT2 cells; format: cell-based; settings: 20 μm compound, MeAIB 0.3 mM, 1 hour, vs vehicle (PBS), HY15549 cells expressing dox-inducible SLC38A2/SNAT2
T1 construct: expressed in transfected cells; host or cells: HY15549 cells with dox-inducible SNAT2
T1 sequence (Q96QD8 1-506): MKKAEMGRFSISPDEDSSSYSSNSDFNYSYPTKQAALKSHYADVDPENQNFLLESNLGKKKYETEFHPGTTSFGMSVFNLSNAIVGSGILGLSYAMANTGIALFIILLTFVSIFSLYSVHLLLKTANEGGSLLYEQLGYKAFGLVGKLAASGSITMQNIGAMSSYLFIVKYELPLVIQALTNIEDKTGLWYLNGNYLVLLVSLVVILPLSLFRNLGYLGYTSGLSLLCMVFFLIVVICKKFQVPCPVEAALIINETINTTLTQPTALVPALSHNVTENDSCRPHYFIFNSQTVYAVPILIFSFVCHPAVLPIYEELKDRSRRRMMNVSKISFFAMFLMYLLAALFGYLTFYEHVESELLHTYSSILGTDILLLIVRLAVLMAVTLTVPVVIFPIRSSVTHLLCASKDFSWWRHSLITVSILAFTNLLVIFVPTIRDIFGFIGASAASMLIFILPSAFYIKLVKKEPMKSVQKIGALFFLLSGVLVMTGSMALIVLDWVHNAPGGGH
Description: (A) Schematic depicting SLC38A2-dependent update of alanine structural analog, methyl α-aminoisobutyrate (MeAIB). […] (B) Total ion chromatogram (TIC) of HY15549 dox-inducible SNAT2 cells treated with 1 mM MeAIB for 24 hours compared to vehicle (PBS). […] HY15549 dox-inducible SNAT2 cells were cultured with a concentration gradient of MeAIB for 15 minutes (gray circles) or 60 minutes (black squares). (D) Western blot depicting SLC38A2 expression relative to doxycycline after 24 hours culture in HY15549 dox-inducible SNAT2 cells. (E) Intracellular MeAIB levels in HY15549 dox-inducible cells cultured with dox (+SNAT2, left bar) and without dox (KO, right bar) for 24 hours with 1 mM MeAIB. (F) Intracellular MeAIB levels in HY15549 dox-inducible cells cultured with vehicle, paroxetine (PXT, 20 μM), or sertraline (SRT, 20 μm) for 24 hours with 300 μM MeAIB.

SMILES	rescue of amino acid defect (change in intracellular amino acids relative to DMEM) (HY19636 cells)	alanine uptake in PDAC cells (8988T cells)	inhibition of MeAIB uptake (intracellular MeAIB levels) (SLC38A2)
C[C@H](N)C(=O)OC(C)(C)C [L-alanine tert-butyl ester]	failed to rescue amino acid defect	–	–
C[C@H](N)C(=O)O [L-alanine]	failed to rescue amino acid defect	–	–
COCCCC/C(=N\OCCN)c1ccc(C(F)(F)F)cc1 [fluvoxamine]	–	significantly and specifically inhibits alanine uptake	inhibited
